{"source": "patent US6676932B2", "about": "“Ultraviolet absorbent, photostabilizer, ultraviolet ray-absorbing composition, photostabilized composition and external preparation for skin” (Shiseido Co., Ltd., priority 2001, dated 2004)", "type_in_all_cases": "physicochemical", "key": {"[1]": {"test": "Drug stabilization effect under daylight exposure (Test Examples 182 to 211)", "parameters": "key to Appearance (visual determination): ◯: no change; Δ: almost no change; x: change", "conditions": "photostabilizer 0.05 wt %, daylight exposure (80 MJ); for Remaining ratio (%): liquid chromatography", "procedure": "(§1) For observation of the change of the appearance of each test sample (determination based on visual observation) and the measurement of the remaining ratio by liquid chromatography before and after daylight exposure (80 MJ), the test sample was prepared."}, "[2]": {"test": "Stabilization effect on perfume under daylight exposure (Test Examples 92 to 181)", "parameters": "key: ◯: no change; Δ: almost no change; x: change", "conditions": "daylight exposure (80 MJ)", "procedure": "Each test sample was prepared for observation of the change of the odor of the test sample (determined by perfume coordinator) before and after daylight exposure (80 MJ)."}, "[3]": {"test": "Dye stabilization effect under daylight exposure (Test Examples 6-91)", "parameters": "key to Δ E: color difference ΔE in Lab vs. color before daylight exposure; key to Appearance (visual determination): ◯: no change; Δ: almost no change; x: change", "conditions": "photostabilizer 0.05 wt %, daylight exposure (80 MJ)", "procedure": "For observation of the change of the appearance of each test sample (determination based on visual observation) and the measurement of color difference (ΔE) before and after daylight exposure (80 MJ), the test sample was prepared.\n(§2) With a spectrophotometer, the color was measured on the Lab coordinate system, to calculate the color difference on the basis of the color before daylight exposure. More specifically, the color difference (ΔE) was calculated on the basis of the measured values (L1, a1, b1) before daylight exposure."}, "[4]": {"test": "Drug stabilization effect blended with sequestering agent (Test Examples 372 to 391)", "parameters": "key to Appearance (visual determination): ◯: no change; Δ: almost no change; x: change", "conditions": "daylight exposure (80 MJ)", "procedure": "Then, the photostabilization effect of the pyridazine derivative in combination with sequestering agents on each drug and the change of the appearance of each composition were examined, by using the following formulation for assessment.\nas §1"}, "[5]": {"test": "Dye stabilization effect in blend with sequestering agents (Test Examples 212 to 275)", "conditions": "daylight exposure (80 MJ)", "procedure": "Each test sample was prepared for observation of the change of the appearance of each test sample (determined visually) and measurement of the color difference (ΔE) before and after daylight exposure (80 MJ).\nas §2"}, "[6]": {"conditions": "drug L-ascorbic acid 2-glucoside 2.0 wt %"}, "[7]": {"conditions": "dye Blue 1 (Brilliant Blue FCF) 0.0001 wt %"}, "[8]": {"conditions": "dye Green 3 (Fast Green FCF) 0.001 wt %"}, "[9]": {"conditions": "dye Red 227 (Acid Fuchsine D) 0.0001 wt %"}, "[10]": {"conditions": "dye Yellow 5 (Sunset Yellow FCF) 0.001 wt %"}, "[11]": {"conditions": "dyes Yellow 203 (Quinoline Yellow WS) 0.0001 + Yellow 5 (Sunset Yellow FCF) 0.0001 wt %"}, "[12]": {"conditions": "drug dl-α-tocopherol 2-L-ascorbic acid phosphate diester potassium salt 0.01 wt %"}, "[13]": {"conditions": "dyes Red 213 (Rhodamine B) 0.00001 + Blue 1 (Brilliant Blue FCF) 0.00001 wt %"}, "[14]": {"conditions": "dyes Red 227 (Acid Fuchsine D) 0.0001 + Yellow 5 (Sunset Yellow FCF) 0.0001 wt %"}, "[15]": {"conditions": "drug Glycyrrhizinic acid dipotassium 0.05, sequestering agent blend amount 0.03, photostabilizer 0"}, "[16]": {"conditions": "drug L-ascorbic acid 2-glucoside 2.0, sequestering agent blend amount 0.03, photostabilizer 0"}, "[17]": {"conditions": "drug dibutylhydroxy toluene 0.01, sequestering agent blend amount 0.03, photostabilizer 0"}, "[18]": {"conditions": "dye Blue 1 (Brilliant Blue FCF) 0.001, sequestering agent 0.05 alone, photostabilizer 0"}, "[19]": {"conditions": "dye Red 227 (Acid Fuchsine D) 0.0001, sequestering agent 0.02 alone, photostabilizer 0"}, "[20]": {"conditions": "drug dl-α-tocopherol 2-L-ascorbic acid phosphate diester potassium salt 0.01, sequestering agent blend amount 0.03, photostabilizer 0"}}}
{"compound": "c1cc(N2CCOCC2)nnc1N1CCOCC1", "note": "[3,6-Dimorpholinopyridazine]", "values": [{"measurement": "Appearance (visual determination)", "setting": "[1]; [6]", "value": "◯"}, {"measurement": "Remaining ratio (%)", "setting": "[1]; [6]", "value": 98.5, "unit": "%"}, {"measurement": "odor determination", "setting": "[2]; base perfume Fruity, photostabilizer 0.1 wt %", "value": "◯"}, {"measurement": "odor determination", "setting": "[2]; natural perfume Nelori oil, photostabilizer 0.1 wt %", "value": "◯"}, {"measurement": "odor determination", "setting": "[2]; synthetic perfume Limonene oil, photostabilizer 0.05 wt %", "value": "◯"}, {"measurement": "Appearance (visual determination)", "setting": "[3]; [7]", "value": "◯"}, {"measurement": "Δ E", "setting": "[3]; [7]", "value": 1.25}, {"measurement": "Appearance (visual determination)", "setting": "[3]; [8]", "value": "◯"}, {"measurement": "Δ E", "setting": "[3]; [8]", "value": 0.44}, {"measurement": "Appearance (visual determination)", "setting": "[3]; [9]", "value": "◯"}, {"measurement": "Δ E", "setting": "[3]; [9]", "value": 0.53}, {"measurement": "Appearance (visual determination)", "setting": "[3]; [10]", "value": "◯"}, {"measurement": "Δ E", "setting": "[3]; [10]", "value": 0.51}, {"measurement": "Appearance (visual determination)", "setting": "[3]; [11]", "value": "◯"}, {"measurement": "Δ E", "setting": "[3]; [11]", "value": 0.40}, {"measurement": "Appearance (visual determination)", "setting": "[4]; drug dibutylhydroxy toluene 0.01, no sequestering agent, photostabilizer blend amount 0.03", "value": "Δ"}, {"measurement": "Appearance (visual determination)", "setting": "[4]; drug dibutylhydroxy toluene 0.01, with sodium metaphosphate 0.03, photostabilizer blend amount 0.03", "value": "◯"}, {"measurement": "Δ E", "setting": "[5]; dyes Red 213 (Rhodamine B) 0.00001 + Blue 1 (Brilliant Blue FCF) 0.00001, no sequestering agent, photostabilizer blend amount 0.02", "value": 1.98}, {"measurement": "Δ E", "setting": "[5]; dyes Red 213 (Rhodamine B) 0.00001 + Blue 1 (Brilliant Blue FCF) 0.00001, with ethylenediaminehydroxyethyl trisodium triacetate 0.03, photostabilizer blend amount 0.02", "value": 1.32}]}
{"compound": "Oc1cc(N2CCCCC2)cnn1", "note": "[3-Hydroxy-5-piperidinopyridazine, 3-hydroxy-5-piperidinopyridazine]", "values": [{"measurement": "Appearance (visual determination)", "setting": "[1]; [12]", "value": "◯"}, {"measurement": "Remaining ratio (%)", "setting": "[1]; [12]", "value": 98.7, "unit": "%"}, {"measurement": "Appearance (visual determination)", "setting": "[1]; drug salicylic acid 0.1 wt %", "value": "◯"}, {"measurement": "Remaining ratio (%)", "setting": "[1]; drug salicylic acid 0.1 wt %", "value": 98.5, "unit": "%"}, {"measurement": "odor determination", "setting": "[2]; base perfume Rose, photostabilizer 0.05 wt %", "value": "◯"}, {"measurement": "odor determination", "setting": "[2]; base perfume Woody, photostabilizer 0.1 wt %", "value": "◯"}, {"measurement": "odor determination", "setting": "[2]; natural perfume Lavender oil, photostabilizer 0.1 wt %", "value": "◯"}, {"measurement": "odor determination", "setting": "[2]; natural perfume Rose oil, photostabilizer 0.05 wt %", "value": "◯"}, {"measurement": "odor determination", "setting": "[2]; synthetic perfume Citral, photostabilizer 0.1 wt %", "value": "◯"}, {"measurement": "odor determination", "setting": "[2]; synthetic perfume Linalyl acetate, photostabilizer 0.1 wt %", "value": "◯"}, {"measurement": "Appearance (visual determination)", "setting": "[3]; [7]", "value": "◯"}, {"measurement": "Δ E", "setting": "[3]; [7]", "value": 1.28}, {"measurement": "Appearance (visual determination)", "setting": "[3]; [8]", "value": "◯"}, {"measurement": "Δ E", "setting": "[3]; [8]", "value": 0.45}, {"measurement": "Appearance (visual determination)", "setting": "[3]; [9]", "value": "◯"}, {"measurement": "Δ E", "setting": "[3]; [9]", "value": 0.52}, {"measurement": "Appearance (visual determination)", "setting": "[3]; [10]", "value": "◯"}, {"measurement": "Δ E", "setting": "[3]; [10]", "value": 0.53}, {"measurement": "Appearance (visual determination)", "setting": "[3]; [13]", "value": "◯"}, {"measurement": "Δ E", "setting": "[3]; [13]", "value": 1.01}, {"measurement": "Appearance (visual determination)", "setting": "[3]; [14]", "value": "◯"}, {"measurement": "Δ E", "setting": "[3]; [14]", "value": 0.68}, {"measurement": "Appearance (visual determination)", "setting": "[4]; drug dl-α-tocopherol 2-L-ascorbic acid phosphate diester potassium salt 0.01, no sequestering agent, photostabilizer blend amount 0.03", "value": "Δ"}, {"measurement": "Appearance (visual determination)", "setting": "[4]; drug dl-α-tocopherol 2-L-ascorbic acid phosphate diester potassium salt 0.01, with ethylenediaminehydroxyethyl Triacetate trisodium 0.03, photostabilizer blend amount 0.03", "value": "◯"}, {"measurement": "Δ E", "setting": "[5]; dye Blue 1 (Brilliant Blue FCF) 0.001, photostabilizer 0.02, no sequestering agent", "value": 1.74}, {"measurement": "Δ E", "setting": "[5]; dye Blue 1 (Brilliant Blue FCF) 0.001, photostabilizer 0.02, with ethylenediaminehydroxyethyl trisodium triacetate 0.05", "value": 0.54}, {"measurement": "Δ E", "setting": "[5]; dye Blue 1 (Brilliant Blue FCF) 0.001, photostabilizer 0.02, with ethylenediaminetetraacetate trisodium 0.05", "value": 0.78}, {"measurement": "Δ E", "setting": "[5]; dye Blue 1 (Brilliant Blue FCF) 0.001, photostabilizer 0.02, with sodium metaphosphate 0.05", "value": 0.88}, {"measurement": "Δ E", "setting": "[5]; dyes Red 106 (Acid Red) 0.00001 + Yellow 203 (Quinoline Yellow WS) 0.0001, no sequestering agent, photostabilizer blend amount 0.01", "value": 1.08}, {"measurement": "Δ E", "setting": "[5]; dyes Red 106 (Acid Red) 0.00001 + Yellow 203 (Quinoline Yellow WS) 0.0001, with ethylenediaminehydroxyethyl trisodium triacetate 0.02, photostabilizer blend amount 0.01", "value": 0.72}]}
{"compound": "sodium metaphosphate", "values": [{"measurement": "Appearance (visual determination)", "setting": "[4]; [15]", "value": "x"}, {"measurement": "Remaining ratio (%)", "setting": "[4]; [15]", "value": 85.8, "unit": "%"}, {"measurement": "Appearance (visual determination)", "setting": "[4]; [16]", "value": "x"}, {"measurement": "Remaining ratio (%)", "setting": "[4]; [16]", "value": 85.2, "unit": "%"}, {"measurement": "Appearance (visual determination)", "setting": "[4]; [17]", "value": "x"}, {"measurement": "Remaining ratio (%)", "setting": "[4]; [17]", "value": 54.7, "unit": "%"}, {"measurement": "Δ E", "setting": "[5]; [18]", "value": 7.78}, {"measurement": "Δ E", "setting": "[5]; dye Green 3 (Fast Green FCF) 0.001, sequestering agent 0.1 alone, photostabilizer 0", "value": 1.77}, {"measurement": "Δ E", "setting": "[5]; [19]", "value": 1.37}, {"measurement": "Δ E", "setting": "[5]; dye Yellow 5 (Sunset Yellow FCF) 0.0001, sequestering agent 0.03 alone, photostabilizer 0", "value": 1.68}, {"measurement": "Δ E", "setting": "[5]; dyes Red 227 (Acid Fuchsine D) 0.0001 + Yellow 203 (Quinoline Yellow WS) 0.0001, sequestering agent blend amount 0.02, photostabilizer 0", "value": 3.01}, {"measurement": "Δ E", "setting": "[5]; dyes Red 401 (Violanin R) 0.0001 + Green 3 (Fast Green FCF) 0.00001, sequestering agent blend amount 0.03, photostabilizer 0", "value": 4.23}, {"measurement": "Δ E", "setting": "[5]; dyes Yellow 203 (Quinoline Yellow WS) 0.0001 + Yellow 5 (Sunset Yellow FCF) 0.0001, sequestering agent blend amount 0.01, photostabilizer 0", "value": 1.44}]}
{"compound": "O=C([O-])CN(CCO)CCN(CC(=O)[O-])CC(=O)[O-].[Na+].[Na+].[Na+]", "note": "[ethylenediaminehydroxyethyl trisodium triacetate]", "values": [{"measurement": "Appearance (visual determination)", "setting": "[4]; [20]", "value": "x"}, {"measurement": "Remaining ratio (%)", "setting": "[4]; [20]", "value": 70.1, "unit": "%"}, {"measurement": "Δ E", "setting": "[5]; [18]", "value": 7.63}, {"measurement": "Δ E", "setting": "[5]; [19]", "value": 1.43}, {"measurement": "Δ E", "setting": "[5]; dyes Red 106 (Acid Red) 0.00001 + Yellow 203 (Quinoline Yellow WS) 0.0001, sequestering agent blend amount 0.02, photostabilizer 0", "value": 3.56}, {"measurement": "Δ E", "setting": "[5]; dyes Red 213 (Rhodamine B) 0.00001 + Blue 1 (Brilliant Blue FCF) 0.00001, sequestering agent blend amount 0.03, photostabilizer 0", "value": 3.85}]}
